Entries after “also recorded” stand apart in the source; their conditions may differ. Where two headings read alike, the source gives them in different places.
Legend:
recombinant hMAO-A = molecular target: T1, recombinant hMAO-A (Homo sapiens, UniProt P21397); assay: hMAO-A activity assay (kynuramine, fluorimetric); assay type: biochemical
T1 construct: purchased Fluka-Sigma-Aldrich s.r.l; (Italy); host or cells: Baculovirus infected BT1 cells
T1 sequence (P21397 1-527): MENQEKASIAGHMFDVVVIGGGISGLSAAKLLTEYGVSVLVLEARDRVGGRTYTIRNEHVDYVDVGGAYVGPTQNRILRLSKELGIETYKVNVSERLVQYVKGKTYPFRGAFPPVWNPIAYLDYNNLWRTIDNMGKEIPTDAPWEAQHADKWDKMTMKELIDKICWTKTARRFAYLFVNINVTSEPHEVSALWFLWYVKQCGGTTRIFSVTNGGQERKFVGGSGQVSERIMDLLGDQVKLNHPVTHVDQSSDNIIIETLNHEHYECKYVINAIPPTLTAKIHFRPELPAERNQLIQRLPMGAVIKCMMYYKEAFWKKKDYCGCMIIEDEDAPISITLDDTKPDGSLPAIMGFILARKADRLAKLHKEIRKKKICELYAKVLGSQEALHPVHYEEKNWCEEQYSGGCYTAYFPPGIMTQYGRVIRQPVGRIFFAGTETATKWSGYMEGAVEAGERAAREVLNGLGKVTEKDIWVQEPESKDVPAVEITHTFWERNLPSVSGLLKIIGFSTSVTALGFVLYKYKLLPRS
Experimental: Human recombinant hMAO-A and hMAO-B expressed in Baculovirus infected BT1 cells (5 mg/mL) and horseradish peroxidases were purchased from Fluka-Sigma-Aldrich s.r.l. (Italy). A Cary Eclipse fluorimeter (Varian Inc., Palo Alto, CA, USA) was used for fluorescence measurements. […] At first, the peroxidase-coupled continuous assay that detect the H2O2 generation rate was considered. It uses the Amplex Red reagent as the fluorogenic substrate for horseradish peroxidase.
By applying this method, hMAO activity assays were performed in K/Pi 0.1 M, EDTA 1 mM (total volume: 200 μL; pH 7.4, T = 37 °C), in the presence and in absence of various concentrations of the different compounds (0.2–20 μM and 2–50 μM in the case of hMAO–B and hMAO-A, respectively).
MAOs stock solutions were diluted with assay buffer in the presence or absence of the tested compound to obtain a final concentration of 0.005 mg/mL for MAO-A and 0.010 mg/mL for MAO-B; then, kynuramine (10–300 μM final concentration) was added to the assay solution. After 45–60 min of incubation at 37 °C, the reaction was stopped by the addition of 2 M NaOH (80 μL) and 480 μL of distilled water. Kynuramine deaminated by MAO spontaneously cyclizes to provide 4-hydroxyquinoline, the amount of which was determined by the fluorescence intensity of the peak of its emission spectra (λexc = 330 nm and λem 330–530 nm). Then, the rate of reaction was calculated using a specific calibration curve (in the presence of the same amount of the tested compound) built with the standard 4-hydroxyquinoline.
Under these experimental conditions, the Michaelis–Menten equation for rate of reaction, can be simplified as follows: V ≈ (Vmax/KM) [E]0[S]0 [49]. In the presence of an inhibitor, one or both the kinetic parameters, KM and Vmax, might be affected by its presence, depending on the inhibition mechanism. In particular, in the presence of a reversible inhibitor, both the kinetic parameters could be affected, and the apparent kinetic parameter would then become: KM I = KM,0 (1 + [I]/Ki)/(1 + [I]/(αKi)), and VmaxI = Vmax0/(1 + [I]/(αKi)), where α is the factor indicating how much the dissociation constant of the enzyme-substrate-I complex is different from that of the enzyme–I complex (also named Ki). Consequently, the ratio of the initial rate of reaction in the absence (Vo) and in the presence (VI) of the tested compound (Vo/VI) can be simplified to the ratio of (Vmax/KM)o/(Vmax/KM)I ≈ (1 + [I]/Ki).
To study the mechanism of inhibition, the steady-state kinetic parameters (Vmax and Km) of MAO-A and MAO-B were determined by performing experiments at different substrate concentrations and in the absence and presence of different concentrations of the tested compound. Vmax and Km were calculated by fitting the Michaelis–Menten equation to the experimental data (initial rate of reactions vs. substrate concentrations), with Sigma Plot software, version 9.0 (Jandel Scientific, San Rafael, CA, USA).

[1] = system: Nrf2 nuclear translocation in SH-SY5Y cells; assay: Nrf2 nuclear translocation (Western blot of nuclear extracts); assay type: cell-based, human
Description: In physiological conditions, the repressor Keap1 traps Nrf2 at the cytosolic level, preventing the activation of Nrf2 pathway. The disruption of Keap1–Nrf2 interaction allows for Nrf2 nuclear translocation, thus resulting in the transcriptional activation of its target cytoprotective genes. […] We and others have previously developed several compounds bearing caffeic and ferulic fragments able to activate Nrf2 in terms of the up-regulation of Nrf2 expression, translocation into the nucleus and induction of the Nrf2-dependent defensive genes, with (pro)electrophilic features emerging as key players. Herein, to analyse the effect of the new molecules on the Nrf2 downstream cascade, the ability of compounds 1–5 to increase Nrf2 nuclear translocation was preliminary evaluated as a pivotal step in Nrf2 signalling activation (Figure 6). Based on MAO-B inhibitory potency and cell toxicity assay, compounds were studied in SH-SY5Y human neuroblastoma cells at the concentration of 5 μM. Given the high structural analogy with our derivatives, we selected the well-known Nrf2 inducer CAPE [37, 38] as the reference compound, and verified its ability to induce Nrf2 nuclear translocation at different concentrations, ranging from 5 µM to 50 µM in our experimental model (Figure S6). Nrf2 nuclear content was assessed via Western blot analysis. […] Consistently, data from literature highlight discrepancies about pioglitazone-mediated Nrf2 activation, indicating its ability to activate Nrf2 in longer timeframes and different in vitro and in vivo experimental conditions. […] The preliminary docking performed on human Keap-1 confirms the excellent positioning of compound 2 within the BTB domain pocket, where cysteine 151 is located (see Figure S5). […] Particularly, all these new molecules hold the characteristic (pro)electrophilic fragments, which however, in this case, resulted to be insufficient to activate Nrf2, as reported for other ferulic and caffeic derivatives. In this regard, optimal target interaction might play a major role, but further biological investigations are needed to fully clarify the mechanism of Nrf2 activation and the effect on the downstream expression of cytoprotective genes.
SH-SY5Y cells (5 × 106) were seeded in […] dishes and treated for 3 h with 5 μM compounds; afterward, the medium was removed, and cells were washed twice with ice-cold PBS. Cells were subsequently homogenized 15 times using a glass−glass Dounce homogenizer in 0.32 M sucrose, buffered with 20 mM Tris- HCl (pH 7.4), containing 2 mM EDTA, 0.5 mM EGTA, 50 mM β-mercaptoethanol and 20 μg/mL leupeptin, apotrinin and pepstatin. The homogenate was centrifuged at 300× g for 5 min to obtain the nuclear fraction. An aliquot of the nuclear fraction was used for protein assay via the Bradford method, whereas the remaining was boiled for 5 min after dilution with sample buffer and subjected to polyacrylamide gel electrophoresis and immunoblotting, as described.

[2] = kynuramine [S] = 10 µM, pH 7.4, 37 °C, mean ± S.D., read-out: hMAO-A Ki

Row | Ki (recombinant hMAO-A; [2]) [µM] | Compound | Ki (recombinant hMAO-A) [µM] | Nrf2 nuclear translocation ([1]; 5 µM and 20 µM, 3 h) | Nrf2 nuclear translocation ([1]; 5 μM, 3 h) | Nrf2 nuclear translocation ([1]; until concentrations higher than 50 µM)
1 | – | O=C(/C=C/c1ccc(O)c(O)c1)OCCc1ccccc1 [CAPE, caffeic acid phenethyl ester, reference compound] | 12 ± 2 | induced Nrf2 nuclear translocation | – | –
2 | 35 ± 4 | O=C(/C=C/c1ccc(O)c(O)c1)Oc1ccc(CC2SC(=O)NC2=O)cc1 (stereo not drawn) [Compound 2, 4-((2,4-Dioxothiazolidin-5-yl)methyl)phenyl (E)-3-(3,4-Dihydroxyphenyl)acrylate] | – | – | most active; also recorded: strongly induced Nrf2 translocation into the nucleus | –
3 | > 100 | CCc1ccc(CCOc2ccc(CC3SC(=O)NC3=O)cc2)nc1 (stereo not drawn) [Pioglitazone, reference compound] | – | – | – | not able to induce Nrf2 nuclear translocations
